Legend:
[1] = molecular target: T1, CacKam (Catenulispora acidiphila, UniProt C7Q5P8, W113F); assay: biochemical; format: binding
T1 construct: gene Caci_9046; full length 250 residues, N-terminal hexahistidine tag with thrombin site kept; E. coli BL21 (DE3)
Description: (§1) isothermal titration calorimetry on CacKam

[2] = molecular target: T2, CacKam (Catenulispora acidiphila, UniProt C7Q5P8, W203A); assay: biochemical; format: binding
T2 construct: gene Caci_9046; full length 250 residues, N-terminal hexahistidine tag with thrombin site kept; E. coli BL21 (DE3)
T2 sequence (C7Q5P8 entry or part of it W203A): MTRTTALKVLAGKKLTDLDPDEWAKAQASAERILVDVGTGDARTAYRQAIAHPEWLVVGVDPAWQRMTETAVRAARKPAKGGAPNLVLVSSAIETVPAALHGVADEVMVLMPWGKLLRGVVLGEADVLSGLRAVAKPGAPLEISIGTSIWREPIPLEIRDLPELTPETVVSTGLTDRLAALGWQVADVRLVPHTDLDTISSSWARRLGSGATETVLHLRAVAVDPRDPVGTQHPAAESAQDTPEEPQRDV
Description: as §1

[3] = molecular target: T3, CacKam (Catenulispora acidiphila, UniProt C7Q5P8); settings: 1 mM SAM; E. coli 30S subunits; 10 mM MgCl2; pH 7.5; 37 °C
T3 construct: gene Caci_9046
T3 sequence (C7Q5P8 entry or part of it): as the sequence (C7Q5P8 entry or part of it W203A) above

[4] = molecular target: T4, CacKam (Catenulispora acidiphila, UniProt C7Q5P8, S201A); assay: biochemical
T4 construct: gene Caci_9046
T4 sequence (C7Q5P8 entry or part of it S201A): as the sequence (C7Q5P8 entry or part of it W203A) above

[5] = molecular target: T5, CacKam (Catenulispora acidiphila, UniProt C7Q5P8, E94A); assay: biochemical
T5 construct: gene Caci_9046
T5 sequence (C7Q5P8 entry or part of it E94A): as the sequence (C7Q5P8 entry or part of it W203A) above

T1 sequence (C7Q5P8 entry or part of it W113F): as the sequence (C7Q5P8 entry or part of it W203A) above

Row | Compound | Kd [1] [µM] | Kd [2] [µM] | 30S methylation, reverse transcription primer extension [3] | Kd [4] [µM] | Kd [5] [µM]
1 | C[S+](CC[C@H](N)C(=O)O)C[C@H]1O[C@@H](n2cnc3c(N)ncnc32)[C@H](O)[C@@H]1O (stereo partly shown) [SAM] | 103 | 68 | Methylation by the wild-type enzyme was essentially the same under each condition as expected | 110 | 29
2 | Nc1ncnc2c1ncn2[C@@H]1O[C@H](CSCC[C@H](N)C(=O)O)[C@@H](O)[C@H]1O [SAH] | 11 | 5.1 |  |  | 
